According to US20110300246A1, “Herbal Extracts for Treatment of Diabetic Complications and Oxidative Stress” (priority 2010, published 2011):

Key:
STZ-diabetic rats [1] = assay: Renal oxidative stress (SOD activity, MDA) in STZ-diabetic rats; format: in vivo, rat; conditions: renal cortical tissue, 12 weeks, mean ± SD, n=8
Description: (§1) Male Sprague-Dawley male rats, weighing 200-250 g, aged 8-10 weeks, were used. Diabetes was induced by administration of streptozotocin (STZ, Sigma-Aldrich, USA) in 0.1 mol/L sodium citrate (pH 4.5) at a dose of 55 mg/kg intraperitoneally. After 48 hours injection, blood glucose levels of the animals were examined using glucose meter. The induction of diabetes was confirmed when the blood glucose level was greater than 300 mg/dl. Animals were maintained in diabetic conditions for 2 weeks without any treatment and blood glucose was determined every week to ensure the subsistence of diabetes. Animals with uncertain blood glucose levels or blood glucose exceeding 600 mg/dl were excluded from the study.
(§2) HEM was suspended in 1% carboxymethylcellulose (CMC) before use. Aminogunidine was dissolved in water first and then added into 1% CMC before use. […] The diabetes-induced and the normal control groups consisted of 8 animals of each. […]
For measurements of SOD activity and MDA contents, the renal cortical tissues were homogenized in a buffer solution (0.25 M sucrose, 0.5 mM EDTA, 50 mM HEPES, protease inhibitors) on ice and centrifuged at 4° C. at 12,000 rpm for 20 min. The supernatants were collected and analyzed with corresponding assay kits (Nanjing Jiancheng Shengwu Yanjiu Suo, Nanjing, China) according to the manufacturer's instructions, […]

STZ-diabetic rats [2] = assay: 24-hr urinary albumin excretion in STZ-diabetic rats; format: in vivo, rat; conditions: 12 weeks, P<0.01, FIG. 8
Description: as §1
as §2, with “each. The initial body weights and blood glucose levels of the diabetic animals were similar among the three groups.” for “each.”
Development of albuminuria is a cardinal manifestation of glomerular injury and a pathological factor in the progression of renal dysfunction. […] The levels of urinary albumin were quantified using a commercial assay kit (Guangzhou WhiJa Technology, Inc. Guangzhou, China), according to the manufacturer's instructions.

[3] = system: STZ-induced diabetic rats; assay: Immunohistochemical staining for insulin in pancreatic islets of STZ-diabetic rats; format: in vivo, rat; conditions: 12 weeks treatment, FIG. 2
Description: as §1
(§3) HEM was suspended in 1% carboxymethylcellulose (CMC) before use. Aminogunidine was dissolved in water first and then added into 1% CMC before use. […] The diabetes-induced and the normal control groups consisted of 8 animals of each. The initial body weights and blood glucose levels of the diabetic animals were similar among the three groups. […] The normal control group and the diabetic control group were administered with equivalent volume of CMC daily for 12 weeks. The standard rat diet and water were available ad libitum throughout the entire treatment period. […]

[4] = system: STZ-induced diabetic rats; assay: AGE-fluorescence in the pancreas of STZ-diabetic rats; format: in vivo, rat; conditions: 12 weeks treatment, FIG. 3
Description: as §1, with “Animals with uncertain blood glucose levels or blood glucose exceeding 600 mg/dl were excluded from the study.” left out
Minced pancreatic tissue was delipidated with chloroform and methanol (2:1,v/v) overnight. […] The amounts of AGEs in these alkali-soluble samples were determined by measuring the fluorescence at an emission wavelength of 440 nm and an excitation wavelength at 370 nm using a fluorescence Spectrophotometer. A native bovine serum albumin (BSA) preparation (1 mg/ml of 0.1 N NaOH) was used as a standard, and its fluorescence intensity was defined as one arbitrary unit (AU). The fluorescence values of samples were measured at a protein concentration of 1 mg/ml and expressed in arbitrary unit (AU) compared with a native BSA preparation. Sample protein concentrations were determined using Bradford method.

STZ-diabetic rats [5] = assay: AGE levels in the kidney cortex of STZ-diabetic rats; format: in vivo, rat; conditions: 12 weeks, mean ± SD, n=8
Description: as §1, §3

STZ-diabetic rats [6] = assay: Fluorescent AGEs and CML-AGE in the descending aorta of STZ-diabetic rats; format: in vivo, rat; conditions: 12 weeks, FIG. 6 and FIG. 7
Description: as §1, §3

[7] = system: bovine serum albumin (BSA)-AGEs formation; assay: Glucose and methylglyoxal induced BSA-AGEs formation in vitro (fluorescence); format: biochemical; conditions: BSA + 2 mM methylglyoxal + 200 mM glucose, 37° C., 7 days
Description: Glucose and Methylglyoxal induced bovine serum albumin (BSA)-AGEs formation is used to test the inhibitory effects of the inventive single herbal extract and mixed herbal extracts on the formation of AGEs in vitro.
Methods: As a protein source, BSA (Sigma-Aldrich, St. Louis, Mo., USA) was dissolved in 50 mM phosphate buffer (pH 7.4) to a concentration of 10 mg/ml. As a sugar source, a mixture of 2 mM methylglyoxal and 200 mM glucose (sigma-Aldrich, St. Louis, Mo., USA) was used. This sugar mixture was added to the prepared BSA solution for use in tests. […] Aminoguanidine (AG), a positive control drug, was tested in the same manner except that AG was dissolved in distilled water. As a negative control group, a culture consisting of BSA, the sugar mixture and 10% Tween80 was cultured. As blanks to the control and test groups, the materials for the test group and the materials for the control group were used after preparation without incubation. Five samples for each group were used to reduce errors to the lowest possible extent. After 7 days incubation, the amounts of AGEs in test samples were determined by measuring the fluorescence at an emission wavelength of 440 nm and an excitation wavelength at 370 nm using a fluorescence Spectrophotometer. The inhibition (%) of the formation of AGEs was calculated according to the following equation:
Inhibition (%) of production=100−[(fluorescent intensity of test group−fluorescent intensity of blank to test group)/(fluorescent intensity of control group−fluorescent intensity of blank to control group)]×100.

STZ-diabetic rats [8] = assay: Body weight gain and general well-being in STZ-diabetic rats, 12 weeks treatment; format: in vivo, rat
Description: as §1
as §3, with “weeks.” for “weeks. The standard rat diet and water were available ad libitum throughout the entire treatment period.”
The general behavioral status of the animals (i.e. locomotor activity, alertness to environmental changes) was observed every day, and the body weight and food intake were measured weekly.

Question: N=C(N)NN [Aminoguanidine, aminoguanidine] was tested. Which “Renal MDA” value (STZ-diabetic rats [1]) did it give?
Answer: The value was 8.82 ± 1.92 μM/mg protein.

Question: What about the “Renal SOD activity” value (STZ-diabetic rats [1]) of the same molecule?
Answer: Its value is 1.78 ± 0.42 Unit/mg protein.

Question: And the “reduction of 24-hr urinary albumin excretion compared with STZ-diabetic control group” value (STZ-diabetic rats [2])?
Answer: Its value is 37.3%.

Question: What about the “insulin immunostaining in the pancreatic islets” value [3] of the same molecule?
Answer: Its value is “no evident effect”.

Question: What about the “pancreatic level of AGEs (fluorescence)” value [4] of the same molecule?
Answer: The value was “effectively lowered”.

Question: And the “AGE-fluorescence in the kidney cortex” value (STZ-diabetic rats [5])?
Answer: Its value is 3.4 ± 0.5 AU/mg protein.

Question: What about the “CML-AGE in the kidney cortex” value (STZ-diabetic rats [5]) of the same molecule?
Answer: Its value is 262.8 ± 55.4 ng/mg protein.

Question: What about the “accumulation of AGEs (fluorescent AGEs and CML-AGE) in the descending aorta” value (STZ-diabetic rats [6]) of the same molecule?
Answer: Its value is “effectively reduced”.

Question: And the “Inhibition (%) of the formation of AGEs” value ([7]; 12.5 mcg/ml)?
Answer: The value was 19.6 ± 3.6%.

Question: And the “Inhibition (%) of the formation of AGEs” value ([7]; 25 mcg/ml)?
Answer: The value was 31.7 ± 3.5%.

Question: And the “Inhibition (%) of the formation of AGEs” value ([7]; 50 mcg/ml)?
Answer: The value was 44.8 ± 2.9%.

Question: What about the “Inhibition (%) of the formation of AGEs” value ([7]; 100 mcg/ml) of the same molecule?
Answer: Its value is 69.9 ± 3.5%.

Question: And the “body weight increase by the end of the experiment” value (STZ-diabetic rats [8]; 12 weeks oral treatment)?
Answer: The value was 44.0 g.

Question: And the “Body weight (g) (after treatment)” value (STZ-diabetic rats [8]; oral gavage daily 12 weeks, HEM 500 mg/kg, AG 50 mg/kg, mean ± SD, n=8)?
Answer: The value was 258.6 ± 8.1 g.
